Laboratory results as given in PMC10663540, “Structure-based discovery of dual pathway inhibitors for SARS-CoV-2 entry” (Nature Communications, 2023).
“And” between values parts separate entries of the source, which are not always exact repeats. Equal values may be shown once. Read-outs that look alike come from different tables or passages of the source.

How the values were obtained:
[1] = tested on: SARS-CoV-2 Omicron BA.2 variant; test: microbe, parasite or virus in culture; format: cell-based; conditions: for EC50: Severe acute respiratory syndrome coronavirus 2
SARS-CoV-2 Delta variant = test: microbe, parasite or virus in culture; format: cell-based
[2] = Calu-3, Omicron BA.2, […], read-out: Antiviral efficacy EC50 (95% CI)
[3] = Calu-3, Omicron BA.2, one representative replicate, before reprocessing, read-out: EC50, original manuscript version
[4] = Severe acute respiratory syndrome coronavirus 2, Calu-3; read-out: Antiviral efficacy EC50 (95% CI)
[5] = Severe acute respiratory syndrome coronavirus 2, Calu-3, read-out: Antiviral efficacy EC50 (95% CI)
[6] = Severe acute respiratory syndrome coronavirus 2, Calu-3, read-out: Inhibition: Delta
[7] = Calu-3; 0.0012207 μM; replicates
[8] = Calu-3; 0.00488281 μM; replicates
[9] = Calu-3; 0.0195312 μM; replicates
[10] = Calu-3; 0.078125 μM; replicates

CN1CCN(C(=O)N[C@@H](Cc2ccccc2)C(=O)N[C@H](/C=C/S(=O)(=O)c2ccccc2)CCc2ccccc2)CC1 [K777]
Inhibition: Omicron BA.2 ([1]; Calu-3, 0.00457247 μM, rep1-rep2): -0.32% and 3.09%
Inhibition: Omicron BA.2 ([1]; Calu-3, 0.123457 μM, rep1-rep2): 90.17%
Inhibition: Omicron BA.2 ([1]; Calu-3, 0.37037 μM, rep1-rep2): 90.95%
Inhibition: Omicron BA.2 ([1]; Calu-3, 1.11111 μM, rep1-rep2): 85.59%
Inhibition: Omicron BA.2 ([1]; Calu-3, 3.33333 μM, rep1-rep2): 91.43%
Inhibition: Omicron BA.2 ([1]; Calu-3, 10 μM, rep1-rep2): 91.43%
inhibition at 0.123457 µM ([1]; Severe acute respiratory syndrome coronavirus 2, Calu-3, Calu-3, 0.123457 μM, rep1-rep2): 70.6%
inhibition at 0.37037 µM ([1]; Severe acute respiratory syndrome coronavirus 2, Calu-3, Calu-3, 0.37037 μM, rep1-rep2): 87.7%
inhibition at 1.11111 µM ([1]; Severe acute respiratory syndrome coronavirus 2, Calu-3, Calu-3, 1.11111 μM, rep1-rep2): 97.1%
inhibition at 3.33333 µM ([1]; Severe acute respiratory syndrome coronavirus 2, Calu-3, Calu-3, 3.33333 μM, rep1-rep2): 98%
inhibition at 10 µM ([1]; Severe acute respiratory syndrome coronavirus 2, Calu-3, Calu-3, 10 μM, rep1-rep2): 99.2%
EC50 [1, 2]: 14 nM
EC50 [1, 3]: 77.7 nM
Inhibition: Delta (SARS-CoV-2 Delta variant; Calu-3; 0.00256 μM; replicates): -6.46e-6% and 5.80% and -22.49%
Inhibition: Delta (SARS-CoV-2 Delta variant; Calu-3; 0.0128 μM; replicates): 16.53% (2×) and 0.45%
Inhibition: Delta (SARS-CoV-2 Delta variant; Calu-3; 0.064 μM; replicates): 24.66% (2×) and 0.45%
Inhibition: Delta (SARS-CoV-2 Delta variant; Calu-3; 8 μM; replicates): 82.03%
Inhibition: Delta (SARS-CoV-2 Delta variant; Calu-3; 40 μM; replicates): 97.04%
inhibition at 8 µM (SARS-CoV-2 Delta variant; Severe acute respiratory syndrome coronavirus 2, Calu-3, Calu-3; 8 μM; replicates; read-out: Inhibition: Delta): 85.5%
inhibition at 40 µM (SARS-CoV-2 Delta variant; Severe acute respiratory syndrome coronavirus 2, Calu-3, Calu-3; 40 μM; replicates; read-out: Inhibition: Delta): 98%
EC50 (SARS-CoV-2 Delta variant; [4]): 638 nM

NC(N)=Nc1ccc(C(=O)OCCN2CCN(C(=O)N[C@@H](Cc3ccccc3)C(=O)N[C@H](/C=C/S(=O)(=O)c3ccccc3)CCc3ccccc3)CC2)cc1 [212-148]
Inhibition: BA.2/Calu-3 ([1]; 212-148 0.00256 μM, Fig. 5e): 7.11%
Inhibition: BA.2/Calu-3 ([1]; 212-148 0.064 μM, Fig. 5e): 29.70% and 52.65%
Inhibition: BA.2/Calu-3 ([1]; 212-148 8 μM, Fig. 5e): 88.58%
Selectivity index (SI = CC50/EC50) ([1]; Calu-3, Omicron BA.2): 5,391
inhibition at 8 µM ([1]; Severe acute respiratory syndrome coronavirus 2, Calu-3, 212-148 8 μM, Fig. 5e): 85.9%
inhibition at 40 µM ([1]; Severe acute respiratory syndrome coronavirus 2, Calu-3, 212-148 40 μM, Fig. 5e): 99.4%
EC50 [1, 2]: 64.4 nM
Inhibition: Delta/Calu-3 (SARS-CoV-2 Delta variant; 212-148 8 μM; Fig. 5e): 89.60% and 87.76%
Inhibition: Delta/Calu-3 (SARS-CoV-2 Delta variant; 212-148 40 μM; Fig. 5e): 98.01%
Selectivity index (SI = CC50/EC50) (SARS-CoV-2 Delta variant; Calu-3; Delta): 1,476
block of viral replication in TCID50 assay (in words) (SARS-CoV-2 Delta variant; Calu-3; delta strain or omicron strain BA.2 (Fig. 5e)): completely blocked
inhibition at 8 µM (SARS-CoV-2 Delta variant; Severe acute respiratory syndrome coronavirus 2, Calu-3, 212-148 8 μM; Fig. 5e; read-out: Inhibition: Delta/Calu-3): 85.5%
inhibition at 40 µM (SARS-CoV-2 Delta variant; Severe acute respiratory syndrome coronavirus 2, Calu-3, 212-148 40 μM; Fig. 5e; read-out: Inhibition: Delta/Calu-3): 96.1%
inhibition at 200 µM (SARS-CoV-2 Delta variant; Severe acute respiratory syndrome coronavirus 2, Calu-3, 212-148 200 μM; Fig. 5e): 100%
EC50 (SARS-CoV-2 Delta variant; [4]): 235 nM

N=C(N)c1ccc2cc(OC(=O)c3ccc(N=C(N)N)cc3)ccc2c1 [Nafamostat]
Inhibition: Delta (SARS-CoV-2 Delta variant; 0.00128 µM): -1.10% and 5.80% and -6.46e-6%
Inhibition: Delta (SARS-CoV-2 Delta variant; 20 µM): 99.61%
EC50 (SARS-CoV-2 Delta variant; [5]): 26.3 nM
inhibition at 0.8 µM (SARS-CoV-2 Delta variant; [6]): 98.8%
inhibition at 4 µM (SARS-CoV-2 Delta variant; [6]): 98.6%
inhibition at 20 µM (SARS-CoV-2 Delta variant; [6]): 99.8%
inhibition at […] (SARS-CoV-2 Delta variant; [6]): 90.6% and 87.8%

CCOC(=O)C1OC1C(=O)NC(CC(C)C)C(=O)NCCC(C)C (centres unmarked) [E64d]
Inhibition: Omicron BA.2 ([1]; 0.0411523 µM): -1.22%
Inhibition: Omicron BA.2 ([1]; 0.123457 µM): 20.89% and 27.12%
Inhibition: Omicron BA.2 ([1]; 0.37037 µM): 68.35% and 58.49%
Inhibition: Omicron BA.2 ([1]; 1.11111 µM): 89.97% and 78.59%
Inhibition: Omicron BA.2 ([1]; 3.33333 µM): 93.67% and 90.37%
Inhibition: Omicron BA.2 ([1]; 10 µM): 97.22% and 98.95%
EC50 [1, 2]: 240 nM
EC50 [1, 3]: 227 nM

CCOC(=O)c1ccc(OC(=O)CCCCCNC(=N)N)cc1 [Gabexate]
Inhibition: Delta (SARS-CoV-2 Delta variant; [7]): 14.57% and 29.88%
Inhibition: Delta (SARS-CoV-2 Delta variant; [8]): -54.36% and -37.95%
Inhibition: Delta (SARS-CoV-2 Delta variant; [9]): -64.93% and -37.95%
Inhibition: Delta (SARS-CoV-2 Delta variant; [10]): 31.59% and -7.79%
Inhibition: Delta (SARS-CoV-2 Delta variant; Calu-3; 0.3125 μM; replicates): 39.67%
Inhibition: Delta (SARS-CoV-2 Delta variant; Calu-3; 1.25 μM; replicates): -34.59% and 12.43%
Inhibition: Delta (SARS-CoV-2 Delta variant; Calu-3; 5 μM; replicates): 64.87% and -37.95%
Inhibition: Delta (SARS-CoV-2 Delta variant; Calu-3; 20 μM; replicates): -11.09% and 39.67%
inhibitory efficacy (in words) (SARS-CoV-2 Delta variant; Calu-3; Delta): negligible
inhibition at 0.3125 µM (SARS-CoV-2 Delta variant; Severe acute respiratory syndrome coronavirus 2, Calu-3, Calu-3; 0.3125 μM; replicates; read-out: Inhibition: Delta): 53.9%
EC50 (SARS-CoV-2 Delta variant; [4]): > 20000 nM

CC(C)(NS(=O)(=O)c1ccc2c(Cl)cnc(N=C(N)N)c2c1)C(=O)O [UK-371804]
Inhibition: Delta (SARS-CoV-2 Delta variant; [7]): -13.87% and -11.09%
Inhibition: Delta (SARS-CoV-2 Delta variant; [8]): -7.79% and -36.72%
Inhibition: Delta (SARS-CoV-2 Delta variant; [9]): -13.87% and -11.09%
Inhibition: Delta (SARS-CoV-2 Delta variant; [10]): 5.76%
Inhibition: Delta (SARS-CoV-2 Delta variant; Calu-3; 0.3125 μM; replicates): 29.88% and 14.57%
Inhibition: Delta (SARS-CoV-2 Delta variant; Calu-3; 1.25 μM; replicates): 77.84%
Inhibition: Delta (SARS-CoV-2 Delta variant; Calu-3; 5 μM; replicates): 90.58%
Inhibition: Delta (SARS-CoV-2 Delta variant; Calu-3; 20 μM; replicates): 90.58%
Selectivity index (SI = CC50/EC50) (SARS-CoV-2 Delta variant; Calu-3; Delta): 405
inhibition at 0.078125 µM (SARS-CoV-2 Delta variant; Severe acute respiratory syndrome coronavirus 2, Calu-3, Calu-3; 0.078125 μM; replicates): 7.48%
inhibition at 1.25 µM (SARS-CoV-2 Delta variant; Severe acute respiratory syndrome coronavirus 2, Calu-3, Calu-3; 1.25 μM; replicates; read-out: Inhibition: Delta): 77.3%
inhibition at 5 µM (SARS-CoV-2 Delta variant; Severe acute respiratory syndrome coronavirus 2, Calu-3, Calu-3; 5 μM; replicates; read-out: Inhibition: Delta): 88.6%
inhibition at 20 µM (SARS-CoV-2 Delta variant; Severe acute respiratory syndrome coronavirus 2, Calu-3, Calu-3; 20 μM; replicates; read-out: Inhibition: Delta): 93%
EC50 (SARS-CoV-2 Delta variant; [4]): 425 nM

CN(C)C(=O)COC(=O)Cc1ccc(OC(=O)c2ccc(NC(=N)N)cc2)cc1 [Camostat]
Inhibition: Delta (SARS-CoV-2 Delta variant; 0.078125 µM): 31.59% and 52.79%
Inhibition: Delta (SARS-CoV-2 Delta variant; 0.3125 µM): 64%
Inhibition: Delta (SARS-CoV-2 Delta variant; 1.25 µM): 96.40%
Inhibition: Delta (SARS-CoV-2 Delta variant; 5 µM): 92.99%
Inhibition: Delta (SARS-CoV-2 Delta variant; 20 µM): 91.24%
EC50 (SARS-CoV-2 Delta variant; [5]): 109 nM
inhibition at 0.3125 µM (SARS-CoV-2 Delta variant; [6]): 53.9%
inhibition at 1.25 µM (SARS-CoV-2 Delta variant; [6]): 95.4%
inhibition at 5 µM (SARS-CoV-2 Delta variant; [6]): 92.4%
inhibition at 20 µM (SARS-CoV-2 Delta variant; [6]): 88.9%
